In patent EP0048954A2, “Beta-lactam compounds, process for the preparation thereof and intermediate products for the preparation thereof” (SAGAMI CHEMICAL RESEARCH CENTER, priority 1980, dated 1982):
In brackets after ≈: the same amount, converted by molar mass. Several values for one entry are separate records, joined by “and”; a condition that tells them apart may be missing. Identical values can stand only once.

How the values were obtained:
Test in all cases: Antibacterial activity, minimum inhibition concentration (method of The Chemotherapy Association, Japan)
Assay type in all cases: cell-based
[1] = test system: Proteus rettgeri NIH-96; conditions: for minimum inhibition concentration: strain I: Proteus rettgeri NIH-96; for MIC: Providencia rettgeri, NIH96, strain I: Proteus rettgeri NIH-96, read-out: minimum inhibition concentration
Description: (§1) The abbreviations A to P will be used in the following Tables 2 to 8.
(§2) Test results are shown in terms of the minimum inhibition concentration (µg/mℓ.) in the following Tables 2 to 8.

[2] = test system: Proteus vulgaris OX-19; conditions: Proteus vulgaris, OX19, strain H: Proteus vulgaris OX-19; read-out: minimum inhibition concentration
Description: as §1, §2

[3] = test system: Bacillus subtilis ATCC 6633; conditions: for MIC: Bacillus subtilis, ATCC6633, strain B: Bacillus subtilis ATCC 6633, read-out: minimum inhibition concentration
Method: (§3) Antibacterial activities of the compounds according to this invention, which had been prepared in the preceding Examples, were measured according to the method prescribed by The Committee of Amendment of "The method for measurement of the minimum inhibition concentration", The Chemotherapy Association, Japan (See Chemotherapy, Vol. 22, No. 6, pp. 1126 - 1128 (1974) and Vol. 29, No. 1, pp. 76 - 79 (1981)).
as §1, §2

[4] = test system: Citrobactor freundii NIH-10018 -68; conditions: strain O: Citrobactor freundii NIH-10018 -68; read-out: minimum inhibition concentration
Method: as §3, §1, §2

[5] = test system: Enterobactor cloacae NCTC-9394; conditions: strain N: Enterobactor cloacae NCTC-9394; for MIC: read-out: minimum inhibition concentration
Method: as §3, §1, §2

[6] = test system: Escherichia coli NIHJC-2; conditions: for MIC: Escherichia coli, NIHJC2, strain L: Escherichia coli NIHJC-2, read-out: minimum inhibition concentration
Method: as §3, §1, §2

[7] = test system: Escherichia coli NIHJ; conditions: strain K: Escherichia coli NIHJ; for MIC: Escherichia coli, read-out: minimum inhibition concentration
Method: as §3, §1, §2

[8] = test system: Klebsiella pneumoniae; conditions: strain C: Klebsiella pneumoniae; for MIC: Klebsiella pneumoniae, read-out: minimum inhibition concentration
Method: as §3, §1, §2

[9] = test system: Proteus mirabillis B-30-2 IFO-3849; conditions: strain G: Proteus mirabillis B-30-2 IFO-3849; for MIC: read-out: minimum inhibition concentration
Method: as §3, §1, §2

[10] = test system: Proteus morgani Kono; conditions: strain J: Proteus morgani Kono; for MIC: read-out: minimum inhibition concentration
Method: as §3, §1, §2

[11] = test system: Pseudomonas aeruginosa NCTC-10490; conditions: for MIC: Pseudomonas aeruginosa, NCTC10490, strain M: Pseudomonas aeruginosa NCTC-10490, read-out: minimum inhibition concentration; for minimum inhibition concentration: strain M: Pseudomonas aeruginosa NCTC-10490
Method: as §3, §1, §2

[12] = test system: Salmonella typhimurium 3173; conditions: Salmonella enterica, TYPHIMURIUM, strain D: Salmonella typhimurium 3173; read-out: minimum inhibition concentration
Method: as §3, §1, §2

[13] = test system: Serratia marcescens 1023; conditions: for MIC: Serratia marcescens, 1023, strain E: Serratia marcescens 1023, read-out: minimum inhibition concentration
Method: as §3, §1, §2

[14] = test system: Serratia marcescens IFO-3736; conditions: for MIC: Serratia marcescens, IFO3736, strain F: Serratia marcescens IFO-3736, read-out: minimum inhibition concentration; for minimum inhibition concentration: strain F: Serratia marcescens IFO-3736
Method: as §3, §1, §2

[15] = test system: Staphylococcus aureus 6538-P; conditions: strain A: Staphylococcus aureus 6538-P; read-out: minimum inhibition concentration
Method: as §3, §1, §2

SMILES	MIC [2]	MIC [4]	MIC [5]	MIC [6]	MIC [8]	MIC [11]	MIC [12]	MIC [13]	MIC [14]	MIC [15]	MIC [1]	MIC [3]	MIC [7]	MIC [9]	MIC [10]	other results
CO/N=C(\C(=O)N[C@@H]1C(=O)N2C(C(=O)O)=C(COC(C)=O)CS[C@H]12)c1csc(N)n1 [Cefotaxime, reference compound]	< 0.025 µg/mL	0.2 µg/mL (≈ 0.439 µM)	0.39 µg/mL (≈ 0.856 µM)	0.2 µg/mL (≈ 0.439 µM)	0.1 µg/mL (≈ 0.22 µM)	0.78 µg/mL (≈ 1.71 µM)	0.1 µg/mL (≈ 0.22 µM)	50 µg/mL (≈ 110 µM)	0.2 µg/mL (≈ 0.439 µM)	0.39 µg/mL (≈ 0.856 µM)	–	–	–	–	–	minimum inhibition concentration [1]: <0.00625 µg/mL; minimum inhibition concentration ([1]; listed as Cefota-xime): <0.025 µg/mL; minimum inhibition concentration ([3]; strain B: Bacillus subtilis ATCC 6633): 6.25 µg/mL (≈ 13.7 µM); minimum inhibition concentration [5]: 0.2 µg/mL (≈ 0.439 µM); minimum inhibition concentration ([5]; listed as Cefota-xime): 0.2 µg/mL (≈ 0.439 µM); minimum inhibition concentration ([6]; strain L: Escherichia coli NIHJC-2): 0.1 µg/mL (≈ 0.22 µM); minimum inhibition concentration [7]: <0.00625 µg/mL; minimum inhibition concentration ([7]; listed as Cefota-xime): <0.025 µg/mL; minimum inhibition concentration [8]: 0.05 µg/mL (≈ 0.11 µM); minimum inhibition concentration [9]: 0.025 µg/mL (≈ 0.0549 µM); minimum inhibition concentration ([9]; listed as Cefota-xime): 0.1 µg/mL (≈ 0.22 µM); minimum inhibition concentration [10]: 0.39 µg/mL (≈ 0.856 µM); minimum inhibition concentration ([10]; listed as Cefota-xime): 1.56 µg/mL and 0.78 µg/mL; minimum inhibition concentration [11]: 0.39 µg/mL (≈ 0.856 µM); minimum inhibition concentration ([11]; listed as Cefota-xime): 0.39 µg/mL (≈ 0.856 µM); minimum inhibition concentration ([13]; strain E: Serratia marcescens 1023): 100 µg/mL (≈ 220 µM); minimum inhibition concentration [14]: 0.2 µg/mL (≈ 0.439 µM); minimum inhibition concentration ([14]; listed as Cefota-xime): 0.39 µg/mL (≈ 0.856 µM)
Cn1nnnc1SCC1=C(C(=O)O)N2C(=O)C(NC(=O)C(=C(Cl)Cl)c3ccco3)C2SC1 (stereo not shown) [Compound 1, 7-[2-dichloromethylene-2-(2-furyl)acetamido]-3-(1-methyl-IH-tetrazol-5-yl)thiomethyl-3-cephem-4-carboxylic acid]	0.2 µg/mL (≈ 0.387 µM)	12.5 µg/mL (≈ 24.2 µM)	6.25 µg/mL (≈ 12.1 µM)	25 µg/mL (≈ 48.3 µM)	25 µg/mL (≈ 48.3 µM)	3.12 µg/mL (≈ 6.04 µM)	12.5 µg/mL (≈ 24.2 µM)	1.56 µg/mL (≈ 3.02 µM)	50 µg/mL (≈ 96.6 µM)	0.39 µg/mL (≈ 0.754 µM)	< 0.025 µg/mL	1.56 µg/mL (≈ 3.02 µM)	< 0.025 µg/mL	50 µg/mL (≈ 96.6 µM)	50 µg/mL (≈ 96.6 µM)	–
CC(=O)OCC1=C(C(=O)O)N2C(=O)C(NC(=O)C(=C(Cl)Cl)c3ccc(O)cc3)[C@H]2SC1 (stereo partly shown) [Compound 2, 7-[2-dichloromethylene-2-(4-hydroxyphenyl)acetamido]-3-acetoxymethyl-3-cephem-4-carboxylic acid]	6.25 µg/mL (≈ 12.8 µM)	> 100 µg/mL	> 100 µg/mL	> 100 µg/mL	> 100 µg/mL	6.25 µg/mL (≈ 12.8 µM)	100 µg/mL (≈ 205 µM)	6.25 µg/mL (≈ 12.8 µM)	> 100 µg/mL	0.39 µg/mL (≈ 0.8 µM)	0.2 µg/mL (≈ 0.41 µM)	3.12 µg/mL (≈ 6.41 µM)	0.39 µg/mL (≈ 0.8 µM)	> 100 µg/mL	> 100 µg/mL	–
CC(=O)OCC1=C(C(=O)O)N2C(=O)C(NC(=O)C(=C(Cl)Cl)c3cccc(O)c3)[C@H]2SC1 (stereo partly shown) [Compound 3, 7-[2-dichloromethylene-2-(3-hydroxyphenyl)acetamido]-3-acetoxymethyl-3-cephem-4-carboxylic acid]	0.76 µg/mL (≈ 1.56 µM)	25 µg/mL (≈ 51.3 µM)	12.5 µg/mL (≈ 25.7 µM)	50 µg/mL (≈ 103 µM)	50 µg/mL (≈ 103 µM)	6.25 µg/mL (≈ 12.8 µM)	12.5 µg/mL (≈ 25.7 µM)	0.25 µg/mL (≈ 0.513 µM)	50 µg/mL (≈ 103 µM)	0.39 µg/mL (≈ 0.8 µM)	0.1 µg/mL (≈ 0.205 µM)	3.12 µg/mL (≈ 6.41 µM)	0.2 µg/mL (≈ 0.41 µM)	50 µg/mL (≈ 103 µM)	100 µg/mL (≈ 205 µM)	–
